Measured values taken from patent publication US4283494A, “Microbial lipase, process for its preparation and microbiologically pure culture therefor” (Meito Sangyo Kabushiki Kaisha, priority 1978, dated 1981).
Read-outs that look alike come from different tables or passages of the source.

Assays:
[1] = system: microbial lipase of the invention, Alcaligenes sp. PL-679 Meito (FERM-P No. 3783, ATCC 31371); details: 10 min
[2] = system: Lipase I of Japanese Laid-Open Patent Publication No. 21387/77, Alcaligenes sp. PL-266 Meito; details: cited from earlier work
[3] = system: Lipase II of Japanese Laid-Open Patent Publication No. 21387/77, Alcaligenes sp. PL-266 Meito; details: cited from earlier work
[4] = system: microbial lipase of the invention, Alcaligenes sp. PL-679 Meito (FERM-P No. 3783, ATCC 31371); assay: Lipase activity inhibition by inhibiting reagents (contact at 37° C. for 10 minutes, then olive oil emulsion assay); assay type: biochemical; details: inhibiting reagent 10^-2 mole, lipase about 3 U/ml
Protocol: An aqueous solution of the lipase sample (about 3 units/ml) is contacted with each of the inhibiting agents at 37° C. for 10 minutes, and the lipase activity is measured.
The lipase in a concentration of about 3 U/ml is contacted with various inhibiting reagents at 37° C. for 10 minutes, and then the lipase activity is measured.
Glycine buffer (1 mole, pH 8.7): 2.0 ml
Olive oil emulsion: 2.5 ml
The olive oil emulsion is prepared by adding 20 g of olive oil to 180 ml of a 10% aqueous solution of gum arabic, homogenizing the mixture at 11,000 r.p.m. for 15 minutes while it is cooled to 5°-10° C., and adjusting the pH of the homogenized mixture to 8.7.
The reaction mixture is placed in a 25 ml glass stopper tube, and reacted exactly for 10 minutes at 37° C. Then, the reaction is stopped by adding 1 ml of 2 N sulfuric acid, and 15 ml of a mixture of n-heptane and isopropanol in a ratio of 11:4 is added. The mixture is vigorously shaken for 30 seconds, and allowed to stand for more than 30 minutes. […] The mixture is treated in the same way as above, and the resulting product is titrated with a potassium hydroxide solution, and the measured value obtained is substracted from the measured value obtained above. The amount of fatty acid liberated is calculated from the resulting titration value with reference to the standard line prepared by using a known amount of palmitic acid. […]

[5] = concentration of bile salt 0.2%
[6] = concentration of bile salt 0.4%
[7] = concentration of bile salt 0.6%
[8] = concentration of bile salt 0.8%

Structure (SMILES)	Lipase activity, percentage based on the lipase activity in the absence of a bile salt [1, 5] [%]	Lipase activity, percentage based on the lipase activity in the absence of a bile salt [1, 6] [%]	Lipase activity, percentage based on the lipase activity in the absence of a bile salt [1, 7] [%]	Lipase activity, percentage based on the lipase activity in the absence of a bile salt [1, 8] [%]	also measured
C[C@H](CCC(=O)O)[C@H]1CC[C@H]2[C@@H]3CC[C@@H]4C[C@H](O)CC[C@]4(C)[C@H]3C[C@H](O)[C@]12C [Desoxycholate]	289	300	305	303	–
O=C(O)CI [monoiodoacetic acid]	–	–	–	–	Activity inhibition by monoiodoacetic acid ([2]; concentration 10^-3 mole): Not inhibited; Activity inhibition by monoiodoacetic acid ([3]; concentration 10^-3 mole): Not inhibited
CCOC(=O)OC(=O)OCC [ethoxyformic anhydride]	–	–	–	–	Activity inhibition of the lipase [4]: about 70%
O=C1O[C@H]([C@@H](O)CO)C([O-])=C1O.[Na+] [sodium ascorbate]	–	–	–	–	Activity inhibition by sodium ascorbate ([2]; concentration 10^-2 mole): Not inhibited; Activity inhibition by sodium ascorbate ([3]; concentration 10^-2 mole): Not inhibited
II [iodine]	–	–	–	–	Activity inhibition of the lipase [4]: about 95%
C[C@H](CCC(=O)NCC(=O)O)[C@H]1CC[C@H]2[C@@H]3[C@H](O)C[C@@H]4C[C@H](O)CC[C@]4(C)[C@H]3C[C@H](O)[C@]12C [Glycocholate]	218	221	232	224	–
C[C@H](CCC(=O)O)[C@H]1CC[C@H]2[C@@H]3[C@H](O)C[C@@H]4C[C@H](O)CC[C@]4(C)[C@H]3C[C@H](O)[C@]12C [Cholate]	197	221	211	229	–
